Read-outs that look alike come from different tables or passages of the source. Some results are limits rather than exact numbers.

The experiment deals with T1, HCV NS5B genotype 1b (Hepatitis C virus genotype 1b, UniProt Q9WMX2).
T1 construct: The protein was expressed with a 21 amino acid C-terminal deletion to remove transmembrane domain; expressed in transfected cells; host or cells: Huh-7
Description: 3D-SCREEN assay (NS5B 3D-Screen platform, luciferase reporter gene). The format is cell-based. The source says:
cDNA encoding HCV NS5B genotype 1b, was cloned in frame with Gal4-DNA Binding Domain. The protein was expressed with a 21 amino acid C-terminal deletion to remove transmembrane domain. Expression of NS5BΔ21/Gal4 DBD fusion protein was under control of SV40 early promoter. 3D-Sensor peptide was cloned in frame with VP16 activation domain. Expression of 3D-Sensor/VP16 AD fusion protein was under control of CMV promoter. Expression of the firefly luciferase reporter gene was inducible by the [Target protein/conformation sensitive peptide/VP16AD] complex.
It is a single-target, cell based assay. Briefly, expression of a reporter gene depends on the interaction of a short peptide, thereafter named 3D-Sensor, and native conformation of the target protein. Whenever the conformation of the target protein is modified, interaction between 3D-sensor and target protein is disrupted and reporter gene is not expressed anymore. Conformation modifiers are identified by loss of expression of reporter gene. NS5B 3D-Screen platform was generated in Huh-7 cell lines by transient transfection of three expression vectors encoding respectively
(i) HCV NS5BΔ21/Gal4-DBD fusion protein
(ii) the 3D-sensor peptide I4/VP16 fusion protein
(iii) the firefly luciferase reporter gene
Huh-7 cells were dissociated the day before transfection and seeded in T175 flasks at a density of 10^7 cells in 30 ml culture medium. Equimolar ratios of vectors were transfected in cell according to optimized jetPEI transfection protocol (PolyPlus Transfection, Illkirch, France) and 10 μg total DNA/10^6 cells. Transfection was performed for 2 hours at 37° C. and 5% CO2 in a humidified atmosphere. After two hours cells were dissociated and seeded in 96 wells plates at a density of 25,000 cells per well and 90 μl culture medium. 10 μl of compounds to be tested were added 2 hours after seeding. Final concentration of DMSO was 1%. Cells were incubated in the presence of compounds for 24 hours after which expression of firefly luciferase reporter gene was quantified. Briefly, culture medium was removed and cells were lysed by addition of 100 μl of lysis buffer containing 125 mM Tris Phosphate ph 7.8, 10 mM EDTA, 5 mM DTT, 50% glycerol and 5% Triton. Plates were vortexed 10 min at 1300 rpm. Cell lysat was transferred in OpaqueWhite Assay 96 well Flat Bottom plates. 100 μl of luciferin solution 1× were added to each well. Luciferin solution contained 40 mM Tris Phosphate ph 7.8, 0.2 mM EDTA, 67 mM DTT, 2.14 mM MgCl2, 5.4 mM MgSO4, 4.7×10^−4 M luciferin, 5.3×10^−4 M ATP and 2.7×10^−4 M Acetyl co enzyme A. Luminescence was immediately measured with Berthold Microlumat Plus LB 96V luminometer with an integration of 0.5 sec. Inhibition was calculated using the formula: % inhibition=(1−(read/average max))*100. Average max=signal in absence of compound

Where [1] appears, read: EC50_3DS_NS5B, Table 1, 3D-SCREEN assay results, Huh-7 cells, 24 hours with compound, firefly luciferase reporter.
The mark [2] stands for this setting: EC50_3DS_NS5B, Table 2, titled Replicon assay results.

Consider “5-[4-(1,1-difluoro-ethoxy)-phenyl]-3-hydroxy-4-(4-isopropyl-benzoyl)-1-(6-methyl-pyridazin-3-yl)-1,5-dihydro-pyrrol-2-one [Example 174]”, for which the EC50 (Table 2, titled Replicon assay results, read-out: EC50_3DS_NS5B) is < 10 µM.
As to `CON=C(C1=C(O)C(=O)N(c2ccc(C)nn2)C1c1ccc(C(C)C)cc1)c1ccc(C)cc1` (mixture of isomers) [Example 53, 3-hydroxy-5-(4-isopropyl-phenyl)-4-(methoxyimino-p-tolyl-methyl)-1-(6-methyl-pyridazin-3-yl)-1,5-dihydro-pyrrol-2-one], the EC50 under setting [1] turned out to be 5 µM.
On to `Cc1ccc(C(=O)C2=C(O)C(=O)N(c3ccc(C#N)cn3)C2c2ccc(C(C)C)cc2)cc1` (stereo not drawn) [Example 7, 6-[3-hydroxy-5-(4-isopropyl-phenyl)-4-(4-methyl-benzoyl)-2-oxo-2,5-dihydro-pyrrol-1-yl]-nicotinonitrile], for which the EC50 under setting [1] turned out to be 9 µM.
Same read-out and setting: the same measure for `Cc1ccc(C(=O)C2=C(O)C(=O)N(c3cccnn3)C2c2ccc(C(C)C)cc2)cc1` (stereo not drawn) [Example 9, 3-hydroxy-5-(4-isopropyl-phenyl)-4-(4-methyl-benzoyl)-1-pyridazin-3-yl-1,5-dihydro-pyrrol-2-one]: 7 µM; for `COc1ccc(C(=O)C2=C(O)C(=O)N(c3ccc(C)nn3)C2c2ccc(C(C)(C)C)cc2)cc1` (stereo not drawn) [Example 10, 5-(4-tert-butyl-phenyl)-3-hydroxy-4-(4-methoxy-benzoyl)-1-(6-methyl-pyridazin-3-yl)-1,5-dihydro-pyrrol-2-one]: 3 µM.
As to `Cc1ccc(C(=O)C2=C(O)C(=O)N(c3ccc(C)nn3)C2c2cccc(C(C)C)c2)cc1` (stereo not drawn) [Example 29, 3-hydroxy-5-(3-isopropyl-phenyl)-4-(4-methyl-benzoyl)-1-(6-methyl-pyridazin-3-yl)-1,5-dihydro-pyrrol-2-one], under setting [1], the EC50 worked out at 6 µM.
Turning to `Cc1ccc(N2C(=O)C(O)=C(C(=O)c3ccc(N(C)C)cc3)C2c2ccc(C(C)C)cc2)nn1` (stereo not drawn) [Example 35, 4-(4-dimethylamino-benzoyl)-3-hydroxy-5-(4-isopropyl-phenyl)-1-(6-methyl-pyridazin-3-yl)-1,5-dihydro-pyrrol-2-one], the EC50 under setting [1] is 3 µM.
Regarding `Cc1ccc(C(=O)C2=C(O)C(=O)N(c3ccc(C)nn3)C2c2ccc(-c3ccccc3)cc2)cc1` (stereo not drawn) [Example 42, 5-biphenyl-4-yl-3-hydroxy-4-(4-methyl-benzoyl)-1-(6-methyl-pyridazin-3-yl)-1,5-dihydro-pyrrol-2-one], under setting [1], the EC50 came to 4 µM.
As for `Cc1ccc(N2C(=O)C(O)=C(C(=O)c3ccc(C(C)C)cc3)C2c2ccc(C(C)C)cc2)nc1` (stereo not drawn) [Example 44, 3-hydroxy-4-(4-isopropyl-benzoyl)-5-(4-isopropyl-phenyl)-1-(5-methyl-pyridin-2-yl)-1,5-dihydro-pyrrol-2-one], under setting [1], the EC50 was 2 µM.
As for `Cc1ccc(N2C(=O)C(O)=C(C(=O)c3ccc(C(C)C)cc3)C2c2ccc(-c3ccccc3)cc2)nn1` (stereo not drawn) [Example 45, 5-biphenyl-4-yl-3-hydroxy-4-(4-isopropyl-benzoyl)-1-(6-methyl-pyridazin-3-yl)-1,5-dihydro-pyrrol-2-one], under setting [1], the EC50 was 4 µM.
Same read-out and setting: the same measure for `Cc1ccc(N2C(=O)C(O)=C(C(=O)c3ccc(N(C)C)cc3)C2c2ccc(OC(F)(F)F)cc2)nn1` (stereo not drawn) [Example 49, 4-(4-dimethylamino-benzoyl)-3-hydroxy-1-(6-methyl-pyridazin-3-yl)-5-(4-trifluoromethoxy-phenyl)-1,5-dihydro-pyrrol-2-one]: 1 µM.
`Cc1ccc(N2C(=O)C(O)=C(C(=O)c3ccc(C(F)(F)F)cc3)C2c2ccc(C(F)(F)F)cc2)nn1` (stereo not drawn) [Example 95, 3-hydroxy-1-(6-methyl-pyridazin-3-yl)-4-(4-trifluoromethyl-benzoyl)-5-(4-trifluoromethyl-phenyl)-1,5-dihydro-pyrrol-2-one]: under setting [2], the EC50 was < 10 µM.
Consider `Cc1ccc(N2C(=O)C(O)=C(C(=O)c3ccc(OC(F)(F)F)cc3)C2c2ccc(C(C)C)cc2)cn1` (stereo not drawn) [Example 97, 5-[3-hydroxy-5-(4-isopropyl-phenyl)-2-oxo-4-(4-trifluoromethoxy-benzoyl)-2,5-dihydro-pyrrol-1-yl]-2-methyl-pyridinium; chloride], for which, under “read-out: EC50_3DS_NS5B, Table 2, titled Replicon assay results”, the EC50 was < 10 µM.
On to `COc1ccc(C(=O)C2=C(O)C(=O)N(c3ccc(C)nn3)C2c2ccc(OC(C)C)cc2)cc1` (stereo not drawn) [Example 100, 3-hydroxy-5-(4-isopropoxy-phenyl)-4-(4-methoxy-benzoyl)-1-(6-methyl-pyridazin-3-yl)-1,5-dihydro-pyrrol-2-one], for which the EC50 under setting [2] was < 10 µM.
Still for that read-out and setting: as for `Cc1ccc(N2C(=O)C(O)=C(C(=O)c3ccc(OC(C)C)cc3)C2c2ccc(OC(C)C)cc2)nn1` (stereo not drawn) [Example 109, 3-hydroxy-4-(4-isopropoxy-benzoyl)-5-(4-isopropoxy-phenyl)-1-(6-methyl-pyridazin-3-yl)-1,5-dihydro-pyrrol-2-one], the figure is < 10 µM; as for `Cc1ccc(N2C(=O)C(O)=C(C(=O)c3ccc(C(C)C)cc3)C2c2ccc(CC(C)C)cc2)nn1` (stereo not drawn) [Example 136, 3-hydroxy-5-(4-isobutyl-phenyl)-4-(4-isopropyl-benzoyl)-1-(6-methyl-pyridazin-3-yl)-1,5-dihydro-pyrrol-2-one], < 10 µM; as for `Cc1ccc(N2C(=O)C(O)=C(C(=O)c3ccc(C(C)C)cc3)C2c2ccc(Br)cc2)nn1` (stereo not drawn) [Example 172, 5-(4-bromo-phenyl)-3-hydroxy-4-(4-isopropyl-benzoyl)-1-(6-methyl-pyridazin-3-yl)-1,5-dihydro-pyrrol-2-one], < 1 µM.
The same measure, in the same setting: as for `Cc1ccc(N2C(=O)C(O)=C(C(=O)c3ccc(C(C)C)cc3)C2c2ccc(SC(C)C)cc2)nn1` (stereo not drawn) [Example 173, 3-hydroxy-4-(4-isopropyl-benzoyl)-5-(4-isopropylsulfanyl-phenyl)-1-(6-methyl-pyridazin-3-yl)-1,5-dihydro-pyrrol-2-one], the figure is < 1 µM; as for `Cc1ccc(N2C(=O)C(O)=C(C(=O)c3ccc(C#N)cc3)C2c2ccc(OC(F)(F)F)cc2)nn1` (stereo not drawn) [Example 176, 4-[4-hydroxy-1-(6-methyl-pyridazin-3-yl)-5-oxo-2-(4-trifluoromethoxy-phenyl)-2,5-dihydro-1H-pyrrole-3-carbonyl]-benzonitrile], < 10 µM; as for `Cc1ccc(N2C(=O)C(O)=C(C(=O)c3ccc(N4CCCC4)cc3)C2c2ccc(OC(C)(F)F)cc2)nn1` (stereo not drawn) [Example 183, 5-[4-(1,1-difluoro-ethoxy)-phenyl]-3-hydroxy-1-(6-methyl-pyridazin-3-yl)-4-(4-pyrrolidin-1-yl-benzoyl)-1,5-dihydro-pyrrol-2-one], < 10 µM.
Same read-out and setting: as for `Cc1ccc(N2C(=O)C(O)=C(C(=O)c3ccc(N4CCCC4)cc3)C2c2ccc(OC(F)(F)F)cc2)nn1` (stereo not drawn) [Example 184, 3-hydroxy-1-(6-methyl-pyridazin-3-yl)-4-(4-pyrrolidin-1-yl-benzoyl)-5-(4-trifluoromethoxy-phenyl)-1,5-dihydro-pyrrol-2-one], the figure is < 10 µM.
With `Cc1ccc(N2C(=O)C(O)=C(C(=O)c3ccc(C(C)C)cc3)C2c2ccc(Oc3cc(C)on3)cc2)nn1` (stereo not drawn) [Example 185, 3-hydroxy-4-(4-isopropyl-benzoyl)-5-[4-(5-methyl-isoxazol-3-yloxy)-phenyl]-1-(6-methyl-pyridazin-3-yl)-1,5-dihydro-pyrrol-2-one], under setting [2], the EC50 is < 10 µM.
The same measure, in the same setting: as for `Cc1ccc(N2C(=O)C(OC(=O)C(C)C)=C(C(=O)c3ccc(C(C)C)cc3)C2c2ccc(OC(F)(F)F)cc2)nn1` (stereo not drawn) [Example 186, Isobutyric acid 4-(4-isopropyl-benzoyl)-1-(6-methyl-pyridazin-3-yl)-2-oxo-5-(4-trifluoromethoxy-phenyl)-2,5-dihydro-1H-pyrrol-3-yl ester], the figure is < 1 µM; as for `Cc1ccc(N2C(=O)C(O)=C(C(=O)c3ccc(C(C)C)cc3)C2c2ccc(C(C)(F)F)nc2)nn1` (stereo not drawn) [Example 187, 5-[6-(1,1-difluoro-ethyl)-pyridin-3-yl]-3-hydroxy-4-(4-isopropyl-benzoyl)-1-(6-methyl-pyridazin-3-yl)-1,5-dihydro-pyrrol-2-one], < 1 µM.

Values taken from patent publication US20120128630A1, “1-(6 MEMBERS AZO-HETEROCYCLIC)-PYRROLIN-2-ONE COMPOUNDS AS INHIBITORS OF HEPATITIS C NS5B POLYMERASE, THE PHARAMACEUTICAL COMPOSITION THEREOF AND THEIR THERAPEUTIC USE” (priority 2009, published 2012).
